According to the supplement of paper PMC11451515:

What was measured:
Conditions in all cases: 48 h
[1] = system: NOMO1; assay: AUC of viability dose-response curve (% viability x log10 dose units); higher = less sensitive
Procedure, shortened: (§1)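 Viability of medium-adapted leukemia cells was measured by CellTiter-Glo One luminescence after 48 h at 37°C with library compounds in DMSO. Doses were 11 threefold steps from 47 μM to 0.79 nM, in 1536-well plates at 500 or 1000 cells/well. Signals were normalised per plate to DMSO and cell-free wells and fitted with a four-parameter log-logistic model on log10 dose. Area under the curve was integrated by trapezoidal rule, with curves exceeding full viability scaled and failed quality-control curves removed.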

[2] = system: P12-Ichikawa; assay: as above
Procedure, shortened: as §1

[3] = system: SEM cells; assay: as above
Procedure, shortened: as §1

[4] = system: NOMO1; assay: cell viability relative to DMSO control; higher = less cytotoxic
Procedure, shortened: (§2)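 Library compounds in DMSO were pin-dosed into 1536-well plates (5 μl) holding NOMO1 or SEM (500 cells/well) or P12-Ichikawa (1000 cells/well) leukemia cells, across an 11-point threefold series of 47 μM to 0.79 nM. Each cell line had been adapted for at least four passages in each medium. CellTiter-Glo One luminescence was read after 48 h at 37°C. Viability is the per-plate percentage relative to DMSO wells, with cell-free wells as background.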

[5] = system: P12-Ichikawa; assay: as above
Procedure, shortened: as §2

[6] = system: SEM cells; assay: as above
Procedure, shortened: as §2

C[C@@H](Oc1cc(-n2cnc3ccc(CN4CCN(C)CC4)cc32)sc1C(N)=O)c1ccccc1C(F)(F)F
AUC of viability dose-response curve
Conditions	[1]	[2]	[3]
HPLM + 10% dialyzed FBS	280	208	233
RPMI 5 mM glucose + 10% FBS	246	202	214
RPMI 5 mM glucose + 10% dialyzed FBS	255	214	234

CN[C@@H]1CN(C[C@H]1OC)C2=NC3=C(C=C2)C(=O)C(=C\N3C4=NC=CS4)/C(O)=O
AUC of viability dose-response curve
Conditions	[1]	[2]	[3]
HPLM + 10% dialyzed FBS	454	426	396
RPMI 5 mM glucose + 10% FBS	455	386	347
RPMI 5 mM glucose + 10% dialyzed FBS	451	389	363

C[C@H]1CCC/C=C/C2C[C@H](O)C[C@H]2[C@H](O)/C=C/C(=O)O1 (some centres not stated)
cell viability [%]
Conditions	[4]	[5]	[6]
HPLM + 10% dialyzed FBS, 0.000781 µM	4.93	90.4	15.7
HPLM + 10% dialyzed FBS, 0.00234 µM	15.8	102	31.7
HPLM + 10% dialyzed FBS, 0.00702 µM	26.7	94.8	17.9
HPLM + 10% dialyzed FBS, 0.0211 µM	7.07	70.4	5.79
HPLM + 10% dialyzed FBS, 0.0632 µM	5.05	32.8	5.21
HPLM + 10% dialyzed FBS, 0.19 µM	5.57	18.7	5.3
HPLM + 10% dialyzed FBS, 0.569 µM	5.16	9.39	5
HPLM + 10% dialyzed FBS, 1.71 µM	4.43	4.66	4.73
HPLM + 10% dialyzed FBS, 5.12 µM	3.51	2.87	2.72
HPLM + 10% dialyzed FBS, 15.4 µM	3.39	2.17	2.09
HPLM + 10% dialyzed FBS, 46.1 µM	2.94	2.02	2.38
RPMI 5 mM glucose + 10% FBS, 0.000781 µM	5.4	74	11.4
RPMI 5 mM glucose + 10% FBS, 0.00234 µM	7	75.3	54.4
RPMI 5 mM glucose + 10% FBS, 0.00702 µM	5.78	81.5	44.6
RPMI 5 mM glucose + 10% FBS, 0.0211 µM	5.27	60.1	9.33
RPMI 5 mM glucose + 10% FBS, 0.0632 µM	5.07	10.9	5.67
RPMI 5 mM glucose + 10% FBS, 0.19 µM	4.51	9.73	6.09
RPMI 5 mM glucose + 10% FBS, 0.569 µM	4.27	6.57	5.62
RPMI 5 mM glucose + 10% FBS, 1.71 µM	3.98	4.48	4.83
RPMI 5 mM glucose + 10% FBS, 5.12 µM	1.66	1.69	3.32
RPMI 5 mM glucose + 10% FBS, 15.4 µM	1.88	1.14	3.06
RPMI 5 mM glucose + 10% FBS, 46.1 µM	3.46	1.83	2.16
RPMI 5 mM glucose + 10% dialyzed FBS, 0.000781 µM	79.5	104	4.97
RPMI 5 mM glucose + 10% dialyzed FBS, 0.00234 µM	6.02	81.9	29.4
RPMI 5 mM glucose + 10% dialyzed FBS, 0.00702 µM	10	86.1	23.6
RPMI 5 mM glucose + 10% dialyzed FBS, 0.0211 µM	5.74	62.7	5.2
RPMI 5 mM glucose + 10% dialyzed FBS, 0.0632 µM	4.22	12.7	4.1
RPMI 5 mM glucose + 10% dialyzed FBS, 0.19 µM	4.83	12.8	3.92
RPMI 5 mM glucose + 10% dialyzed FBS, 0.569 µM	4.29	6.09	3.96
RPMI 5 mM glucose + 10% dialyzed FBS, 1.71 µM	3.43	4.16	3.5
RPMI 5 mM glucose + 10% dialyzed FBS, 5.12 µM	2.6	3.23	2
RPMI 5 mM glucose + 10% dialyzed FBS, 15.4 µM	2.61	2.71	1.85
RPMI 5 mM glucose + 10% dialyzed FBS, 46.1 µM	2.61	1.83	1.45
